Key:
HCC827GR cells [1] = test: Annexin V/7-AAD apoptosis, HCC827GR; type: cell-based, human; design: Early apoptosis / Total apopt / Dead / Live: unit not given here; conditions: for apoptotic cells (annexin V+): 48 h, background 0.92 %; for Late apoptosis/Dead / Early apoptosis / Total apopt / Dead / Live: HCC827GR
Method: (§1) HaCaT cells were grown in DMEM, whereas HCC827 and HCC827GR cells were grown in RPMI 1640. All culture media were supplemented with FBS (10 %) and P/S (1 %), and the cells were grown at 37 °C in 5 % CO2.
Apoptosis was measured using a Muse™ Annexin V & Dead Cell Kit (MCH100105, Merck Millipore). The fluorescent signal was analyzed with a Muse™ Cell Analyzer.

AKT2 = molecular target: T1, AKT2 (Homo sapiens, UniProt P31751); test: In vitro ADP-Glo kinase assay, AKT2; type: biochemical
T1 construct: purchased Promega
Method: (§2) Subsequently, each well was added with ADP-Glo reagent and incubated for another 40 min. After completion of the kinase reaction, each well was added with kinase activity detection reagent and then incubated for 30 min. Liquid was dispensed with I.DOT (Dispendix, Stuttgart, Germany). Luminescence was measured on a Centro LB 960 microplate luminometer (Berthold Technologies).

p-AKT = test: Immunoblot p-AKT with NAC pretreatment, HCC827 and HCC827GR cells; type: cell-based, human; conditions: for p-AKT protein Ratio: control = 1.00
Method: as §1
(§3) Cells were lysed in RIPA buffer, and protein concentration was determined using a Bio-Rad DC Protein Assay kit (Bio-Rad, Hercules, CA, USA). Protein samples from the cell lysates were resolved by sodium dodecyl sulfate-polyacrylamide gel electrophoresis and then transferred onto polyvinylidene fluoride membranes. The membranes were blocked with 3 % or 5 % skim milk and then incubated at 4 °C overnight with the indicated primary antibodies, followed by the corresponding horseradish peroxidase-conjugated secondary antibodies at RT for 2 h. Protein bands were visualized using western blotting luminol reagent solution and ImageQuant LAS 500 (GE Healthcare, Uppsala, Sweden). The density of the bands was quantified using ImageJ software (NIH, Bethesda, MD, USA).

EGFR = molecular target: T2, EGFR (Homo sapiens, UniProt P00533); test: In vitro ADP-Glo kinase assay, EGFR; type: biochemical
T2 construct: purchased Promega
Method: as §2

cyclin D1 = test: Immunoblot cyclin D1 in HCC827 and HCC827GR cells; type: cell-based, human; conditions: for cyclinD1 protein ratio: relative to DBG 0 nM = 1.00
Method: as §1, §3

HCC827 cells = test: MTT viability after NAC pretreatment, HCC827; type: cell-based, human; conditions: for cell viability (relative to untreated = 100.00): HCC827
Method: All culture media were supplemented with FBS (10 %) and P/S (1 %), and the cells were grown at 37 °C in 5 % CO2.
The cells were treated with MTT and incubated for 2 h. The supernatants were removed, and the remaining formazan crystals were dissolved in DMSO before absorbance measurement at 570 nm using a Multiscan GO spectrophotometer (Thermo Fisher Scientific, Vantaa, Finland).

HCC827GR cells [2] = test: Soft agar anchorage-independent growth, HCC827GR; type: cell-based, human; conditions: 2 weeks
Method: The anchorage-independent cell growth assay was performed in 6-well plates with dual agar layers containing 0.6 % agar (lower layer) and 0.3 % agar (upper layer) supplemented with BME, 2 mM L-glutamine, 5 μg/ml gentamicin, and 10 % FBS. After 2 weeks of incubation, the number of colonies was assessed using a microscope (Leica, Wetzlar, Germany), and the mean colony area was analyzed using i-Solution ^TM software (Vancouver, BC, Canada).

T1 sequence (P31751 whole entry): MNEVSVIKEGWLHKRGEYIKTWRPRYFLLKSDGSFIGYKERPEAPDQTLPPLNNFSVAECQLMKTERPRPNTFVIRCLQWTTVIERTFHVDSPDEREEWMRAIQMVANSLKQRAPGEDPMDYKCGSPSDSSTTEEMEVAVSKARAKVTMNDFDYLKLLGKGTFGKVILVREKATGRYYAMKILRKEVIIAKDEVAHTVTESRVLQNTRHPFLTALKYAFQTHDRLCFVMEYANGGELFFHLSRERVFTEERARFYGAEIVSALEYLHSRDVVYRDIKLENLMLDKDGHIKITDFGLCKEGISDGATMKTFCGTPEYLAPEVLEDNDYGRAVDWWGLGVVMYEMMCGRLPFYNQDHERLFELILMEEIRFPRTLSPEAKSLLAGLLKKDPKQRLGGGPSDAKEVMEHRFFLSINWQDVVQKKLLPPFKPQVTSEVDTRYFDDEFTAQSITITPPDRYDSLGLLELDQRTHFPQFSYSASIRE
T2 sequence (P00533 25-1210): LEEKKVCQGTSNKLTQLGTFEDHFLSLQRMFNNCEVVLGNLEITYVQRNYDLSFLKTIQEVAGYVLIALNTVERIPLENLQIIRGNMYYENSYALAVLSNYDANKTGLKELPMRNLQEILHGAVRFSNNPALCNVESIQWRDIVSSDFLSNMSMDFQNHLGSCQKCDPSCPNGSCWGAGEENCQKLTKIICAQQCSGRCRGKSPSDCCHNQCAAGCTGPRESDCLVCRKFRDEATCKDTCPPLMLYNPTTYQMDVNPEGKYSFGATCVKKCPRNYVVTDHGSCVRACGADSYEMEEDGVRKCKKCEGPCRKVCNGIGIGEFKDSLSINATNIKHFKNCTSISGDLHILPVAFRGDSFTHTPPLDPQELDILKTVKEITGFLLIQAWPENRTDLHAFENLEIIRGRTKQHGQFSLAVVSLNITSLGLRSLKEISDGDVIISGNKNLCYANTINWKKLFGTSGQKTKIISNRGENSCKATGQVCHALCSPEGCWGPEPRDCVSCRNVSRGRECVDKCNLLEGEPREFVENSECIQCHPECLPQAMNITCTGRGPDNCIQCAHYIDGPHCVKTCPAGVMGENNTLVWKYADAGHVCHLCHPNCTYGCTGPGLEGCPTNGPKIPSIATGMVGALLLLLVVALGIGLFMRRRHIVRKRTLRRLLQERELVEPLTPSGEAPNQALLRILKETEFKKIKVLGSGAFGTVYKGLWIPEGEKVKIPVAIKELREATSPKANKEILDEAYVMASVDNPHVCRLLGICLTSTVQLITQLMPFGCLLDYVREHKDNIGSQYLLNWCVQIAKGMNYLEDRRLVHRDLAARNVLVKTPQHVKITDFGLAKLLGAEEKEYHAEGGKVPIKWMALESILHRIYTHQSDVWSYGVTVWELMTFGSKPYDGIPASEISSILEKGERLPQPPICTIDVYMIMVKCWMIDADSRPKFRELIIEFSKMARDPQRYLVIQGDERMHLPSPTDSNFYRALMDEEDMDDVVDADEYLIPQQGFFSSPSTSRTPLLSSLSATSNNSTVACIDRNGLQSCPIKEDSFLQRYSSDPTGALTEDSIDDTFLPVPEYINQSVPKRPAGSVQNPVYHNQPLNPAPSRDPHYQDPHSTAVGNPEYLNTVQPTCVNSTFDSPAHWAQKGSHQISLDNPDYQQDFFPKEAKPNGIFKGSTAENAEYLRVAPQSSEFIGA

COc1ccc(C[C@H]2C(=O)N[C@@H](C)C(=O)N(C)[C@H]3Cc4ccc(cc4)Oc4cc(ccc4O[C@@H]4O[C@H](CO)[C@@H](O)[C@H](O)[C@H]4O)C[C@@H](C(=O)N[C@H](C)C(=O)N[C@@H](C)C(=O)N2C)N(C)C3=O)cc1 [DBG, deoxybouvardin glucoside]
apoptotic cells (annexin V+) (HCC827GR cells [1]; DBG 3 nM): 11.08%
apoptotic cells (annexin V+) (HCC827GR cells [1]; DBG 6 nM): 25.58%
apoptotic cells (annexin V+) (HCC827GR cells [1]; DBG 12 nM): 42.32%
Late apoptosis/Dead (HCC827GR cells [1]; DBG 3 nM, mean of 3 samples, untreated 0.23): 0.23
Early apoptosis (HCC827GR cells [1]; DBG 3 nM, mean of 3 samples, untreated 0.68): 10.85
Total apopt (HCC827GR cells [1]; DBG 3 nM, mean of 3 samples, untreated 0.92): 11.08
Dead (HCC827GR cells [1]; DBG 3 nM, mean of 3 samples, untreated 5.53): 0.05
Live (HCC827GR cells [1]; DBG 3 nM, mean of 3 samples, untreated 93.55): 88.87
Dead (HCC827GR cells [1]; DBG 3 nM, replicate 1): 0.05
Early apoptosis (HCC827GR cells [1]; DBG 3 nM, replicate 1): 9.50
Late apoptosis/Dead (HCC827GR cells [1]; DBG 3 nM, replicate 1): 0.15
Live (HCC827GR cells [1]; DBG 3 nM, replicate 1): 90.30
Total apopt (HCC827GR cells [1]; DBG 3 nM, replicate 1): 9.65
Dead (HCC827GR cells [1]; DBG 3 nM, replicate 2): 0.05
Early apoptosis (HCC827GR cells [1]; DBG 3 nM, replicate 2): 10.80
Late apoptosis/Dead (HCC827GR cells [1]; DBG 3 nM, replicate 2): 0.25
Live (HCC827GR cells [1]; DBG 3 nM, replicate 2): 88.90
Total apopt (HCC827GR cells [1]; DBG 3 nM, replicate 2): 11.05
Dead (HCC827GR cells [1]; DBG 3 nM, replicate 3): 0.05
Early apoptosis (HCC827GR cells [1]; DBG 3 nM, replicate 3): 12.25
Late apoptosis/Dead (HCC827GR cells [1]; DBG 3 nM, replicate 3): 0.30
Live (HCC827GR cells [1]; DBG 3 nM, replicate 3): 87.40
Total apopt (HCC827GR cells [1]; DBG 3 nM, replicate 3): 12.55
Late apoptosis/Dead (HCC827GR cells [1]; DBG 6 nM, mean of 3 samples, untreated 0.23): 0.50
Early apoptosis (HCC827GR cells [1]; DBG 6 nM, mean of 3 samples, untreated 0.68): 25.08
Total apopt (HCC827GR cells [1]; DBG 6 nM, mean of 3 samples, untreated 0.92): 25.58
Dead (HCC827GR cells [1]; DBG 6 nM, mean of 3 samples, untreated 5.53): 0.10
Live (HCC827GR cells [1]; DBG 6 nM, mean of 3 samples, untreated 93.55): 74.32
Dead (HCC827GR cells [1]; DBG 6 nM, replicate 1): 0.00
Early apoptosis (HCC827GR cells [1]; DBG 6 nM, replicate 1): 24.55
Late apoptosis/Dead (HCC827GR cells [1]; DBG 6 nM, replicate 1): 0.55
Live (HCC827GR cells [1]; DBG 6 nM, replicate 1): 74.90
Total apopt (HCC827GR cells [1]; DBG 6 nM, replicate 1): 25.10
Dead (HCC827GR cells [1]; DBG 6 nM, replicate 2): 0.15
Early apoptosis (HCC827GR cells [1]; DBG 6 nM, replicate 2): 25.60
Late apoptosis/Dead (HCC827GR cells [1]; DBG 6 nM, replicate 2): 0.40
Live (HCC827GR cells [1]; DBG 6 nM, replicate 2): 73.85
Total apopt (HCC827GR cells [1]; DBG 6 nM, replicate 2): 26.00
Dead (HCC827GR cells [1]; DBG 6 nM, replicate 3): 0.15
Early apoptosis (HCC827GR cells [1]; DBG 6 nM, replicate 3): 25.10
Late apoptosis/Dead (HCC827GR cells [1]; DBG 6 nM, replicate 3): 0.55
Live (HCC827GR cells [1]; DBG 6 nM, replicate 3): 74.20
Total apopt (HCC827GR cells [1]; DBG 6 nM, replicate 3): 25.65
Late apoptosis/Dead (HCC827GR cells [1]; DBG 12 nM, mean of 3 samples, untreated 0.23): 10.45
Early apoptosis (HCC827GR cells [1]; DBG 12 nM, mean of 3 samples, untreated 0.68): 31.87
Total apopt (HCC827GR cells [1]; DBG 12 nM, mean of 3 samples, untreated 0.92): 42.32
Dead (HCC827GR cells [1]; DBG 12 nM, mean of 3 samples, untreated 5.53): 0.13
Live (HCC827GR cells [1]; DBG 12 nM, mean of 3 samples, untreated 93.55): 57.55
Dead (HCC827GR cells [1]; DBG 12 nM, replicate 1): 0.15
Early apoptosis (HCC827GR cells [1]; DBG 12 nM, replicate 1): 31.85
Late apoptosis/Dead (HCC827GR cells [1]; DBG 12 nM, replicate 1): 10.85
Live (HCC827GR cells [1]; DBG 12 nM, replicate 1): 57.15
Total apopt (HCC827GR cells [1]; DBG 12 nM, replicate 1): 42.70
Dead (HCC827GR cells [1]; DBG 12 nM, replicate 2): 0.15
Early apoptosis (HCC827GR cells [1]; DBG 12 nM, replicate 2): 31.65
Late apoptosis/Dead (HCC827GR cells [1]; DBG 12 nM, replicate 2): 10.50
Live (HCC827GR cells [1]; DBG 12 nM, replicate 2): 57.70
Total apopt (HCC827GR cells [1]; DBG 12 nM, replicate 2): 42.15
Dead (HCC827GR cells [1]; DBG 12 nM, replicate 3): 0.10
Early apoptosis (HCC827GR cells [1]; DBG 12 nM, replicate 3): 32.10
Late apoptosis/Dead (HCC827GR cells [1]; DBG 12 nM, replicate 3): 10.00
Live (HCC827GR cells [1]; DBG 12 nM, replicate 3): 57.80
Total apopt (HCC827GR cells [1]; DBG 12 nM, replicate 3): 42.10
IC50 (AKT2; ADP-Glo, AKT2 5 ng, RT, 60 min, luminescence, n=3): 11.2 nM
kinase activity, in words (AKT2; DBG 3, 6, 12 nM): significantly inhibited
p-AKT protein/actin (p-AKT; HCC827, DBG 12 nM, control 1.00): 0.39
p-AKT protein Ratio (p-AKT; HCC827, DBG 12 nM): 0.39
p-AKT protein/actin (p-AKT; HCC827, NAC 4 mM + DBG 12 nM, control 1.00): 0.42
p-AKT protein Ratio (p-AKT; HCC827, NAC 4 mM + DBG 12 nM): 0.42
p-AKT protein/actin (p-AKT; HCC827GR, DBG 12 nM, control 1.04): 0.30
p-AKT protein Ratio (p-AKT; HCC827GR, DBG 12 nM): 0.29
p-AKT protein/actin (p-AKT; HCC827GR, NAC 4 mM + DBG 12 nM, control 1.04): 0.17
p-AKT protein Ratio (p-AKT; HCC827GR, NAC 4 mM + DBG 12 nM): 0.16
DBG-decreased phosphorylation of AKT with NAC (p-AKT; NAC 4 mM pretreatment, DBG 48 h): did not change
IC50 (EGFR; ADP-Glo, EGFR 4 ng, RT, 60 min, luminescence, n=3): 7.23 nM
kinase activity, in words (EGFR; DBG 3, 6, 12 nM): significantly inhibited
level of cyclin D1 (cyclin D1; DBG 3, 6, 12 nM, 48 h): significantly decreased
cyclinD1 protein/actin (cyclin D1; HCC827, DBG 3 nM, DBG 0 nM 0.51): 0.23
cyclinD1 protein ratio (cyclin D1; HCC827, DBG 3 nM): 0.46
cyclinD1 protein/actin (cyclin D1; HCC827, DBG 6 nM, DBG 0 nM 0.51): 0.14
cyclinD1 protein ratio (cyclin D1; HCC827, DBG 6 nM): 0.27
cyclinD1 protein/actin (cyclin D1; HCC827, DBG 12 nM, DBG 0 nM 0.51): 0.09
cyclinD1 protein ratio (cyclin D1; HCC827, DBG 12 nM): 0.17
cyclinD1 protein/actin (cyclin D1; HCC827GR, DBG 3 nM, DBG 0 nM 0.73): 0.37
cyclinD1 protein ratio (cyclin D1; HCC827GR, DBG 3 nM): 0.51
cyclinD1 protein/actin (cyclin D1; HCC827GR, DBG 6 nM, DBG 0 nM 0.73): 0.33
cyclinD1 protein ratio (cyclin D1; HCC827GR, DBG 6 nM): 0.45
cyclinD1 protein/actin (cyclin D1; HCC827GR, DBG 12 nM, DBG 0 nM 0.73): 0.41
cyclinD1 protein ratio (cyclin D1; HCC827GR, DBG 12 nM): 0.57
cell viability (relative to untreated = 100.00) (HCC827 cells; DBG 12 nM, mean of 3): 45.66
cell viability (relative to untreated = 100.00) (HCC827 cells; DBG 12 nM, replicate 1): 44.99
cell viability (relative to untreated = 100.00) (HCC827 cells; DBG 12 nM, replicate 2): 46.50
cell viability (relative to untreated = 100.00) (HCC827 cells; DBG 12 nM, replicate 3): 45.48
cell viability (relative to untreated = 100.00) (HCC827 cells; NAC 4 mM + DBG 12 nM, mean of 3): 94.90
cell viability (relative to untreated = 100.00) (HCC827 cells; NAC 4 mM + DBG 12 nM, replicate 1): 97.37
cell viability (relative to untreated = 100.00) (HCC827 cells; NAC 4 mM + DBG 12 nM, replicate 2): 92.86
cell viability (relative to untreated = 100.00) (HCC827 cells; NAC 4 mM + DBG 12 nM, replicate 3): 94.46
anticancer activity of DBG after NAC pretreatment (HCC827 cells; NAC 4 mM, 3 h, DBG 48 h): decreased
cytotoxicity after NAC pretreatment (HCC827 cells; NAC 4 mM, DBG 12 nM): a little, if any, cytotoxicity only at 12 nM
colony number, Control % (HCC827GR cells [2]; DBG 3 nM): 40.00%
colony size, Control % (HCC827GR cells [2]; DBG 3 nM): 77.33%
colony number, Control % (HCC827GR cells [2]; DBG 6 nM): 13.10%
colony size, Control % (HCC827GR cells [2]; DBG 6 nM): 72.67%
colony number, Control % (HCC827GR cells [2]; DBG 12 nM): 0.00%
colony size, Control % (HCC827GR cells [2]; DBG 12 nM): 0.00%

Reference: paper PMC11579512, “Deoxybouvardin-glucoside induces apoptosis in non-small cell lung cancer cells by targeting EGFR/MET and AKT signaling pathway” (EXCLI Journal, 2024)
